# Test results from PubChem BioAssay AID1963865 (Molecular Pharmacology Branch, DTP, NCI, 2024).
# System: KRAS PDC multicell spheroid viability
# Experiment: Anticancer human tumor 825966-067-R-J1-PDC patient-derived colon carcinoma cell line growth inhibition [KRAS2]
# Details: for IC50: curve of first compound; for viability, T/C: stronger effect = lower value
# Procedure, shortened: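 Combination screen of spheroid viability in tumor-cell co-cultures with endothelial (HUVEC) and mesenchymal stem cell stroma. Each agent was tested in half-log dilutions, topping at clinical Cmax or at 10 microM without a known Cmax.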
# [1] = second compound 0.1 µM, first compound 0.0316 µM
# [2] = second compound 0.1 µM, first compound 0.1 µM
# [3] = second compound 0.1 µM, first compound 0.316 µM
# [4] = second compound 0.1 µM, first compound 1 µM
# [5] = second compound 0.1 µM, first compound 3.16 µM
# [6] = second compound 0.1 µM, first compound 10 µM
# [7] = second compound 0.316 µM, first compound 0.0316 µM
# [8] = second compound 0.316 µM, first compound 0.1 µM
# [9] = second compound 0.316 µM, first compound 0.316 µM
# [10] = second compound 0.316 µM, first compound 1 µM
# [11] = second compound 0.316 µM, first compound 3.16 µM
# [12] = second compound 0.316 µM, first compound 10 µM
# [13] = second compound 1 µM, first compound 0.0316 µM
# [14] = second compound 1 µM, first compound 0.1 µM
# [15] = second compound 1 µM, first compound 0.316 µM
# [16] = second compound 1 µM, first compound 1 µM
# [17] = second compound 1 µM, first compound 3.16 µM
# [18] = second compound 1 µM, first compound 10 µM
# [19] = second compound 3.16 µM, first compound 0.0316 µM
# [20] = second compound 3.16 µM, first compound 0.1 µM
# [21] = second compound 3.16 µM, first compound 0.316 µM
# [22] = second compound 3.16 µM, first compound 1 µM
# [23] = second compound 3.16 µM, first compound 3.16 µM
# [24] = second compound 3.16 µM, first compound 10 µM
# [25] = second compound 10 µM, first compound 0.0316 µM
# [26] = second compound 10 µM, first compound 0.1 µM
# [27] = second compound 10 µM, first compound 0.316 µM
# [28] = second compound 10 µM, first compound 1 µM
# [29] = second compound 10 µM, first compound 3.16 µM
# [30] = second compound 10 µM, first compound 10 µM
# 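Further: spheroids exposed to compounds for 7 days.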
# 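Wherever viability, T/C is given: 100% = DMSO vehicle control viability.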
structure (smiles),measurement,setting,value
CC(C)NCC(C(=O)N1CCN(c2ncnc3c2C(C)CC3O)CC1)c1ccc(Cl)cc1 (stereo not given) + CC1OCC2(CCN(c3cnc(Sc4ccnc(N)c4Cl)c(N)n3)CC2)C1N,IC50,second compound 0.1 µM,4.49 µM
same,IC50,second compound 0.316 µM,4.13 µM
same,IC50,second compound 1 µM,2.55 µM
same,IC50,second compound 3.16 µM,1.42 µM
same,IC50,second compound 10 µM,0.0358 µM
same,"viability, T/C",[1],73.2%
same,"viability, T/C",[2],97.8%
same,"viability, T/C",[3],129%
same,"viability, T/C",[4],87.9%
same,"viability, T/C",[5],67.5%
same,"viability, T/C",[6],11.6%
same,"viability, T/C",[7],86.3%
same,"viability, T/C",[8],121%
same,"viability, T/C",[9],145%
same,"viability, T/C",[10],122%
same,"viability, T/C",[11],60.6%
same,"viability, T/C",[12],14.5%
same,"viability, T/C",[13],92.9%
same,"viability, T/C",[14],102%
same,"viability, T/C",[15],133%
same,"viability, T/C",[16],112%
same,"viability, T/C",[17],36.2%
same,"viability, T/C",[18],12.1%
same,"viability, T/C",[19],102%
same,"viability, T/C",[20],107%
same,"viability, T/C",[21],137%
same,"viability, T/C",[22],67.7%
same,"viability, T/C",[23],13.4%
same,"viability, T/C",[24],5.28%
same,"viability, T/C",[25],53.1%
same,"viability, T/C",[26],29.5%
same,"viability, T/C",[27],21.9%
same,"viability, T/C",[28],6.39%
same,"viability, T/C",[29],4.52%
same,"viability, T/C",[30],4.31%
COC(=O)c1ccc2c(C(=Nc3ccc(N(C)C(=O)CN4CCN(C)CC4)cc3)c3ccccc3)c(O)[nH]c2c1 + C=CC(=O)N1CCN(c2nc(=O)n(-c3c(C)ccnc3C(C)C)c3nc(-c4c(O)cccc4F)c(F)cc23)C(C)C1,IC50,second compound 0.1 µM,0.633 µM
same,IC50,second compound 0.316 µM,0.738 µM
same,IC50,second compound 1 µM,0.513 µM
same,IC50,second compound 3.16 µM,0.472 µM
same,IC50,second compound 10 µM,0.444 µM
same,"viability, T/C",[1],83.3%
same,"viability, T/C",[2],88.2%
same,"viability, T/C",[3],72.2%
same,"viability, T/C",[4],35.4%
same,"viability, T/C",[5],0.37%
same,"viability, T/C",[6],0.76%
same,"viability, T/C",[7],76.2%
same,"viability, T/C",[8],82.6%
same,"viability, T/C",[9],77.7%
same,"viability, T/C",[10],40%
same,"viability, T/C",[11],0.17%
same,"viability, T/C",[12],0.12%
same,"viability, T/C",[13],77.3%
same,"viability, T/C",[14],75.7%
same,"viability, T/C",[15],85.6%
same,"viability, T/C",[16],9.2%
same,"viability, T/C",[17],0.13%
same,"viability, T/C",[18],0.13%
same,"viability, T/C",[19],83%
same,"viability, T/C",[20],76.4%
same,"viability, T/C",[21],71.6%
same,"viability, T/C",[22],9.78%
same,"viability, T/C",[23],1.23%
same,"viability, T/C",[24],0.13%
same,"viability, T/C",[25],71.2%
same,"viability, T/C",[26],67%
same,"viability, T/C",[27],68.7%
same,"viability, T/C",[28],5.2%
same,"viability, T/C",[29],0.99%
same,"viability, T/C",[30],0.17%
CC1OCC2(CCN(c3cnc(Sc4ccnc(N)c4Cl)c(N)n3)CC2)C1N (stereo not given) + C=CC(=O)N1CCN(c2nc(=O)n(-c3c(C)ccnc3C(C)C)c3nc(-c4c(O)cccc4F)c(F)cc23)C(C)C1,IC50,second compound 0.1 µM,9.58 µM
same,IC50,second compound 0.316 µM,6.95 µM
same,IC50,second compound 1 µM,7.78 µM
same,IC50,second compound 3.16 µM,6.05 µM
same,IC50,second compound 10 µM,4.49 µM
same,"viability, T/C",[1],78.4%
same,"viability, T/C",[2],66.8%
same,"viability, T/C",[3],98.4%
same,"viability, T/C",[4],85%
same,"viability, T/C",[5],94.1%
same,"viability, T/C",[6],48.6%
same,"viability, T/C",[7],82.8%
same,"viability, T/C",[8],96.1%
same,"viability, T/C",[9],79.4%
same,"viability, T/C",[10],78.3%
same,"viability, T/C",[11],94.1%
same,"viability, T/C",[12],33.3%
same,"viability, T/C",[13],82.1%
same,"viability, T/C",[14],69.3%
same,"viability, T/C",[15],74.8%
same,"viability, T/C",[16],75.5%
same,"viability, T/C",[17],76.3%
same,"viability, T/C",[18],43.1%
same,"viability, T/C",[19],93.5%
same,"viability, T/C",[20],70.1%
same,"viability, T/C",[21],83.2%
same,"viability, T/C",[22],81%
same,"viability, T/C",[23],90.4%
same,"viability, T/C",[24],23.9%
same,"viability, T/C",[25],80.5%
same,"viability, T/C",[26],74.3%
same,"viability, T/C",[27],106%
same,"viability, T/C",[28],92.9%
same,"viability, T/C",[29],70.1%
same,"viability, T/C",[30],4.36%
CCNC(=O)CC1N=C(c2ccc(Cl)cc2)c2cc(OC)ccc2-n2c(C)nnc21 (stereo not given) + CNCc1ccccc1-c1csc(C(C)Nc2nc(C)nc3cc(OC)c(OC)cc23)c1,IC50,second compound 0.1 µM,> 10 µM
same,IC50,second compound 0.316 µM,> 10 µM
same,IC50,second compound 1 µM,> 10 µM
same,IC50,second compound 3.16 µM,< 0.0316 µM
same,IC50,second compound 10 µM,< 0.0316 µM
same,"viability, T/C",[1],90.3%
same,"viability, T/C",[2],113%
same,"viability, T/C",[3],118%
same,"viability, T/C",[4],91.4%
same,"viability, T/C",[5],82.2%
same,"viability, T/C",[6],65%
same,"viability, T/C",[7],112%
same,"viability, T/C",[8],113%
same,"viability, T/C",[9],120%
same,"viability, T/C",[10],90.9%
same,"viability, T/C",[11],83.1%
same,"viability, T/C",[12],71.5%
same,"viability, T/C",[13],117%
same,"viability, T/C",[14],113%
same,"viability, T/C",[15],122%
same,"viability, T/C",[16],111%
same,"viability, T/C",[17],96.6%
same,"viability, T/C",[18],51.1%
same,"viability, T/C",[19],27.8%
same,"viability, T/C",[20],0.64%
same,"viability, T/C",[21],0.53%
same,"viability, T/C",[22],0.19%
same,"viability, T/C",[23],2.33%
same,"viability, T/C",[24],0.59%
same,"viability, T/C",[25],0.15%
same,"viability, T/C",[26],0.15%
same,"viability, T/C",[27],0.17%
same,"viability, T/C",[28],0.16%
same,"viability, T/C",[29],0.14%
same,"viability, T/C",[30],0.37%
Cn1nccc1Nc1nccc(-c2cc3c(s2)C(C)(C)N(CCN2CCOCC2)C3=O)n1 + COc1cc2nc(C)nc(NC(C)c3cc(N)cc(C(F)(F)F)c3)c2cc1OC1CCOC1,IC50,second compound 0.1 µM,> 10 µM
same,IC50,second compound 0.316 µM,> 10 µM
same,IC50,second compound 1 µM,> 10 µM
same,IC50,second compound 3.16 µM,10 µM
same,IC50,second compound 10 µM,0.0952 µM
same,"viability, T/C",[1],105%
same,"viability, T/C",[2],120%
same,"viability, T/C",[3],146%
same,"viability, T/C",[4],102%
same,"viability, T/C",[5],83.1%
same,"viability, T/C",[6],72.2%
same,"viability, T/C",[7],110%
same,"viability, T/C",[8],112%
same,"viability, T/C",[9],126%
same,"viability, T/C",[10],81%
same,"viability, T/C",[11],83.8%
same,"viability, T/C",[12],67.7%
same,"viability, T/C",[13],114%
same,"viability, T/C",[14],117%
same,"viability, T/C",[15],121%
same,"viability, T/C",[16],79.3%
same,"viability, T/C",[17],80.9%
same,"viability, T/C",[18],65.7%
same,"viability, T/C",[19],103%
same,"viability, T/C",[20],130%
same,"viability, T/C",[21],85.7%
same,"viability, T/C",[22],49.7%
same,"viability, T/C",[23],62.5%
same,"viability, T/C",[24],45.6%
same,"viability, T/C",[25],70.3%
same,"viability, T/C",[26],49.1%
same,"viability, T/C",[27],2.05%
same,"viability, T/C",[28],0.83%
same,"viability, T/C",[29],0.32%
same,"viability, T/C",[30],0.87%
